# From patent US4734421A, “Anti-inflammatory substituted 2-benzyl-mercapto-imidazole and pyrimidine derivatives compositions and method of use therefor” (Merck & Co., Inc., priority 1986, dated 1988)
# Tested on: Rat Foot Edema
# Experiment: Rat Foot Edema Assay (CFE)
# Type: in vivo
# Settings: Table 2a, Dosage (μg) 30
# Protocol: (§1) The rat foot edema assay CFE and the topical mouse ear assay were used to evaluate the anti-inflammatory activity of the novel compounds of the present invention. These are established assay for screening non steroridal anti-inflammatory agents.
# Representative compounds of formula (I) or (II) were tested according to the well-established procedures of rat foot edema assay published in 1962 by C. A. Winter, E. A. Risley and G. W. Nuss, Proc Soc Exp Biol Med. III, 544 (1962).
# Results: The effect of representative compounds on Rat Foot Edema
row,Compound,Edema (% inhibition) [%]
1,COc1ccc(O)c(CSc2nccn2C)c1 [drawing 10],74
2,COc1ccc(O)c(CSc2ncc(C)n2C)c1 [drawing 11],54
3,COc1ccc(O)c(CSc2nc(C)c[nH]2)c1,74
4,COc1ccc(O)c(CSc2ncccn2)c1 [drawing 15],3
5,COc1ccc(O)c(CSc2nc(C)cn2C)c1,77
6,COc1ccc(O)c(CSc2nc3ccccc3[nH]2)c1 [drawing 14],21

# Same assay, conditions: Table 2b, Dosage (mpk) 30
row,Compound,% Inhibition [%]
1,Cc1cnc(SCc2cc3c(cc2O)CCCO3)n1C,42

# Tested on: Mouse Ear Edema
# Experiment: Topical Mouse Ear Assay (Mouse Ear Edema)
# Type: in vivo
# Settings: Table 1, Dosage 300 μg, irritant (PMA or AA) not given
# Protocol: as §1
# The right ears of mice (5 mice per group) were treated topically with either 5μ PMA ([…]) or 1000μ AA alone or with the test compound in 25μ of vehicle. The vehicle was water/pyridine/acetone (1:2:97). A control group of mice received the vehicle only. The mice were allowed food and water ad libitum during the treatment period; 2 hours for AA and 4 hours for PMA. The mice were sacrificed by cervical dislocation and a 6 mm diameter disc of tissue punched from both the treated and untreated ears. The tissue biopsies were immediately weighed and the weight increase of the treated ear relative to the weight of the untreated ear determined.
# Results: The effect of representative compounds on Mouse Ear Edema
row,Compound,Edema (% inhibition) [%]
1,COc1ccc(O)c(CSc2ncc(C)n2C)c1 [drawing 6],65
2,COc1ccc(O)c(CSc2nc3ccccc3[nH]2)c1 [drawing 7],76
3,COc1ccc(O)c(CSc2ncccn2)c1 [drawing 8],32
4,COc1ccc(O)c(CSc2nccn2C)c1 [drawing 5],45
